Measured values published in ChEMBL document CHEMBL1201862, “PubChem BioAssay data set” (2004).
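Assay format: 96-well plates, 48-hour exposure. GI50: concentration for 50% inhibition of growth.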 Calls of active or inactive are those of the source. Rule as the data show it: active = GI50 up to about 1.1 µM and inactive = higher.

Legend:
Test in all cases: inhibition of tumour cell growth, NCI panel, 48 h
786-0 = test system: 786-0
A549 = test system: A549
DU-145 = test system: DU-145
EKVX = test system: EKVX
HOP-62 = test system: HOP-62
Hs-578T = test system: Hs-578T
IGROV-1 = test system: IGROV-1
KM12 = test system: KM12
LOX IMVI = test system: LOX IMVI
M14 = test system: M14
PC-3 = test system: PC-3
SF-268 = test system: SF-268
SF-295 = test system: SF-295
SN12C = test system: SN12C
SR = test system: SR
T47D = test system: T47D
OVCAR-3 = test system: OVCAR-3
OVCAR-4 = test system: OVCAR-4
MDA-N = test system: MDA-N

Measured: GI50

C/C(=C\COP(=O)(O)OP(=O)(O)O)CC/C=C(\C)CNc1ccccc1
active: SR 0.0893 µM
inactive: 786-0 > 50 µM | A549 > 50 µM | DU-145 > 50 µM | EKVX > 50 µM | HOP-62 > 50 µM | Hs-578T 26.4 µM | IGROV-1 11 µM | KM12 > 50 µM | LOX IMVI > 50 µM | M14 > 50 µM | PC-3 > 50 µM | SF-268 > 50 µM | SF-295 > 50 µM | SN12C > 50 µM | T47D 27.4 µM

CN(C)/C=N/c1c2ccccc2nc2ccccc12
inactive: 786-0 5.14 µM | A549 4.61 µM | DU-145 4.83 µM | EKVX 9.46 µM | HOP-62 8.22 µM | Hs-578T 2.01 µM | IGROV-1 4.23 µM | LOX IMVI 2.44 µM | M14 5.37 µM | OVCAR-3 3.05 µM | OVCAR-4 6.64 µM | PC-3 2.98 µM | SF-268 3.35 µM | SF-295 5.7 µM | SN12C 2.53 µM | T47D 2.65 µM

CC(C)[C@H](C)/C=C/[C@@H](C)C1CC[C@H]2[C@@]34C=C[C@]5(C[C@@H](O)CC[C@]5(C)[C@H]3CC[C@]12C)OO4 (some centres not stated)
inactive: 786-0 20.4 µM | A549 42.7 µM | DU-145 23.1 µM | EKVX 39.3 µM | HOP-62 > 100 µM | IGROV-1 29 µM | KM12 31 µM | LOX IMVI 17.7 µM | M14 40.7 µM | MDA-N 35.1 µM | OVCAR-3 89.5 µM | OVCAR-4 40.1 µM | SF-268 29.7 µM | SF-295 32.7 µM | SN12C 28.6 µM | T47D 20.8 µM

CCOC(=O)CCC(NC(=O)c1ccc(NCc2ccc3nc(-c4ccccc4)c(Cl)nc3c2)c2ccccc12)C(=O)OCC (configuration not stated)
inactive: 786-0 > 100 µM | A549 > 100 µM | DU-145 > 100 µM | EKVX > 100 µM | HOP-62 > 100 µM | KM12 > 100 µM | LOX IMVI > 100 µM | M14 > 100 µM | MDA-N > 100 µM | OVCAR-3 > 100 µM | OVCAR-4 > 100 µM | PC-3 > 100 µM | SF-268 > 100 µM | SF-295 > 100 µM | SN12C > 100 µM | T47D 13.9 µM

CO/C(=N\N=C\c1ccc(C(F)(F)F)cc1)c1ccncc1
inactive: 786-0 > 10 µM | A549 > 10 µM | DU-145 > 10 µM | EKVX > 10 µM | HOP-62 > 10 µM | KM12 > 10 µM | LOX IMVI > 10 µM | M14 > 10 µM | MDA-N > 10 µM | OVCAR-3 > 10 µM | OVCAR-4 > 10 µM | PC-3 > 10 µM | SF-268 > 10 µM | SF-295 > 10 µM | SN12C > 10 µM | SR > 10 µM | T47D > 10 µM

CCn1c(-c2cc3ccccc3cc2OC(C)=O)n[nH]c1=S
inactive: 786-0 75.7 µM | DU-145 35.5 µM | EKVX 9.95 µM | HOP-62 57.3 µM | Hs-578T 15.2 µM | IGROV-1 39.6 µM | KM12 27.6 µM | LOX IMVI 37.2 µM | M14 24.2 µM | OVCAR-3 23.7 µM | OVCAR-4 30 µM | PC-3 15.8 µM | SF-268 24.9 µM | SF-295 23.4 µM | T47D 18.6 µM
active: SR 0.624 µM

CC(C)(Cc1ccccc1)Cc1cc(O)ccc1O
inactive: 786-0 12.7 µM | A549 23.7 µM | DU-145 23.1 µM | EKVX 24.9 µM | HOP-62 30.1 µM | IGROV-1 26.9 µM | KM12 15 µM | LOX IMVI 13.3 µM | M14 17.6 µM | MDA-N 16.4 µM | OVCAR-3 11.8 µM | OVCAR-4 16.4 µM | PC-3 22.2 µM | SF-268 13.9 µM | SF-295 18 µM | SN12C 16.7 µM | SR 4.63 µM | T47D 5.9 µM

O=C(NC1=NC2C=CC([N+](=O)[O-])=CC2S1)C(=O)Nn1c(S)nc2ccccc2c1=O (configuration not stated)
inactive: 786-0 > 100 µM | A549 > 100 µM | EKVX 33.7 µM | HOP-62 > 100 µM | Hs-578T 39.4 µM | IGROV-1 21 µM | KM12 > 100 µM | LOX IMVI 67.3 µM | M14 > 100 µM | MDA-N > 100 µM | OVCAR-3 > 100 µM | OVCAR-4 27.4 µM | PC-3 40.6 µM | SF-268 99.3 µM | SF-295 88.9 µM | SN12C > 100 µM | T47D 80.5 µM
